Measured values taken from patent US20240002388A1, “PYRIMIDINONE COMPOUNDS AND USES THEREOF” (HUTCHISON MEDIPHARMA LIMITED, priority 2020, published 2024).
pIC50: −log10 of the molar value.

The compounds below were run on L929 cell line (mouse fibroblastoma cell line) (assay: L929 cell viability assay (mTNF-α + Z-VAD-FMK induced necroptosis)). Details: L929 cells, mTNF-α 0.1 μg/mL + Z-VAD-FMK 5 μM, 20 hours, CellTiter-Glo.
Type: cell-based
Protocol: L929 cell line (mouse fibroblastoma cell line): purchased from ATCC (American Type Culture Collection) Cell Bank, cultured in 5% CO2, 37° C. incubator, and MEM medium which contains L-Glutamine, with 10% FBS was used. • MEM medium: GIBCO, Cat #11095080; • Fetal bovine serum (FBS): GIBCO, Cat #10099-141C; • Dimethyl sulfoxide (DMSO): Sigma, Cat #D2650; • 0.25% Trypsin-EDTA: GIBCO, Cat #25200072; • Recombinant Mouse TNF-alpha Protein (mTNF-α): R&D system, Cat #410-MT-050; • Pan-Caspase inhibitor (Z-VAD-FMK): Selleckchem, Cat #S7023; • CellTiter-Glo 2.0 Cell Viability Assay kit: Promega, Cat #G9242; • Microwell plate reader: Envision, Perkin Elmer; • 96-well plate: Corning, Cat #3917.
The L929 cells at the logarithmic phase were taken out, and the supernatant was discarded. After trypsinization and cell shedding, 10% FBS-containing medium was added for neutralization, and the supernatant was discarded after centrifugation. The cells were re-suspended using 10% FBS-containing medium, adjusted to 7×10^4 cells/ml, added to 96-well microplate at 70 μL/well, i.e., 4.9×10^3 cells/well. Then the plate was incubated in a 5% CO2, 37° C. cell incubator overnight.
After incubating overnight, the 96-well plate was taken out, the medium was discarded, and the plate was washed with 1% FBS-containing MEM medium. Then 1% FBS-containing MEM medium was added at 70 μL/well, and the plate was cultured in a 5% CO2, 37° C. cell incubator. After incubating for 1 hour, the test compound was diluted to the corresponding concentrations using DMSO with 3-fold serial dilution, then the corresponding concentration of DMSO diluted solution was diluted into 1% FBS-containing MEM medium, and 10 μL/well of the diluted test compound with different concentrations (final concentrations of test compound were 10, 3.33, 1.11, 0.37, 0.12, 0.04, 0.014 and 0.005 μM, while final concentration of DMSO was 0.3%) or 10 μL/well control solution (3% DMSO) were added to the cell culture system respectively, with the total volume being 80 μL/well. Then 10 μL of Z-VAD-FMK solution diluted with 1% FBS-containing MEM medium (final concentration of 5 μM) or 10 μL of control solution (2.5% DMSO) was added to each well, with the total volume being 90 μL/well. The plate was incubated in a 5% CO2, 37° C. cell culture incubator for 1 hour.
After incubating for 1 hour, 10 μL of recombinant mouse TNF-α protein solution diluted with 1% FBS-containing MEM medium (final concentration of 0.1 μg/mL) or 10 μL control solution (1% FBS-containing MEM medium) was added to each well. The plate was incubated in a 5% CO2, 37° C. cell culture incubator for 20 hours.
The cell culture plate was taken out from the incubator, and left to stand at room temperature for 30 minutes. Meanwhile, CellTiter-Glo viability assay kit was put from freezer to room temperature, and 50 μL of CellTiter-Glo reagent was added to all wells, the plate was shaken for 1 minutes, protected from light at room temperature for 10 minutes then read the plate on Envision to get the luminescence signal.
The 96-well plate in the dark was taken out, and the chemiluminescence was determined using the Envision microwell plate reader as the signal value of each well.
The mean signal value of the wells of the mixed solution of recombinant mouse TNF-alpha protein (final concentration of 0.1 μg/mL) and Pan-Caspase inhibitor (final concentration of 5 μM) was used as the lower value, and the mean signal value of the wells without stimulation was used as the upper value. According to the signal value of each well, the inhibition rate of each concentration of every compound was calculated, and the IC50 value of compound was obtained by Model 205 in XL-Fit 5.3 software (ID Business Solutions Limited).
Inhibition rate %=[(Luminescence readout of treated compound−Luminescence readout of positive control)/(Luminescence readout of negative control−Luminescence readout of positive control)]×100%, wherein
`CC(C)n1ncc2cnc(C(=O)NC3(c4ccc(-c5cncn([C@H]6C[C@@H](F)C6)c5=O)cc4)CC3)nc21` [Compound 88, N-(1-(4-(1-(cis-3-fluorocyclobutyl)-6-oxo-1,6-dihydropyrimidin-5-yl)phenyl)cyclopropyl)-1-i-propyl-1H-pyrazolo[3,4-d]pyrimidine-6-carboxamide] gave a pIC50 of 6.47.

Same assay, conditions: Mus musculus, L929, 20 h, L929 cells, mTNF-α 0.1 μg/mL + Z-VAD-FMK 5 μM, CellTiter-Glo
Work on `CC(C)n1cncc(-c2ccc(C3(NC(=O)c4nc5n(n4)[C@@H](c4ccccc4)CC5)CC3)cc2)c1=O` [Compound 15] yielded a pIC50 of 5.63.
Work on `CC(C)n1cncc(-c2ccc(C3(NC(=O)c4ncc5cnn(CC6CCC6)c5n4)CC3)cc2)c1=O` [Compound 62] yielded a pIC50 of 7.57.
Compound `CC(C)n1ncc2cnc(C(=O)NC3(c4ccc(-c5cncn([C@H]6C[C@@H]6F)c5=O)cc4)CC3)nc21` [Compound 67] has a pIC50 of 5.25.
`Cn1cncc(-c2ccc(C3(NC(=O)c4nnc(Cc5ccccc5)o4)CC3)cc2)c1=O` [Compound 11] gave a pIC50 of 5.04.
In the case of `CC(C)n1ncc2cnc(C(=O)NC3(c4ccc(-c5cncn(CC(F)(F)F)c5=O)cc4)CC3)nc21` [Compound 38], the pIC50 was 6.82.
For `C[C@H](c1ccccc1)n1cnc(C(=O)NC2(c3ccc(-c4cncn(C)c4=O)cc3)CC2)n1` [Compound 55, (R)—N-(1-(4-(1-methyl-6-oxo-1,6-dihydropyrimidin-5-yl)phenyl)cyclopropyl)-1-(1-phenylethyl)-1H-1,2,4-triazole-3-carboxamide], the pIC50 was 6.59.
For `CC(C)n1cncc(-c2ccc(C3(NC(=O)c4ncc5cnn(CC6CC6)c5n4)CC3)c(F)c2)c1=O` [Compound 72], the pIC50 was 7.80.
`CC(C#N)n1cncc(-c2ccc(C3(NC(=O)c4ncc5cnn(C(C)C)c5n4)CC3)cc2)c1=O` (stereo in doubt) [Compound 83, (S)—N-(1-(4-(1-(1-cyanoethyl)-6-oxo-1,6-dihydropyrimidin-5-yl)phenyl)cyclopropyl)-1-i-propyl-1H-pyrazolo[3,4-d]pyrimidine-6-carboxamide] was tested, and the pIC50 was 6.70.
Compound `CC(C#N)n1cncc(-c2ccc(C3(NC(=O)c4ncc5cnn(C(C)C)c5n4)CC3)cc2)c1=O` (stereo in doubt) [Compound 82, (R)—N-(1-(4-(1-(1-cyanoethyl)-6-oxo-1,6-dihydropyrimidin-5-yl)phenyl)cyclopropyl)-1-i-propyl-1H-pyrazolo[3,4-d]pyrimidine-6-carboxamide] has a pIC50 of 6.44.
With `CC(C)n1ncc2cnc(C(=O)NC3(c4ccc(-c5cncn(C6CCOC6)c5=O)cc4)CC3)nc21` (stereo in doubt) [Compound 80, (R)-1-i-propyl-N-(1-(4-(6-oxo-1-(tetrahydrofuran-3-yl)-1,6-dihydropyrimidin-5-yl)phenyl)cyclopropyl)-1H-pyrazolo[3,4-d]pyrimidine-6-carboxamide] the pIC50 was 6.53.
For `CC(C)n1ncc2cnc(C(=O)NC3(c4ccc(-c5cncn(C6(C)CC6)c5=O)cc4)CC3)nc21` [Compound 78], the pIC50 was 7.36.
`O=C(NC1(c2ccc(-c3cncn(CC4CC4)c3=O)cc2)CC1)c1ncc2cnn(CC3CC3)c2n1` [Compound 64] gave a pIC50 of 7.10.
Compound `CC(C)n1ncc2cnc(C(=O)NC3(c4ccc(-c5cncn([C@H]6C[C@H](F)C6)c5=O)cc4)CC3)nc21` [Compound 87, N-(1-(4-(1-(trans-3-fluorocyclobutyl)-6-oxo-1,6-dihydropyrimidin-5-yl)phenyl)cyclopropyl)-1-i-propyl-1H-pyrazolo[3,4-d]pyrimidine-6-carboxamide] has a pIC50 of 6.41.
Work on `CC(C)n1ncc2cnc(C(=O)NC3(c4ccc(-c5cncn(C6CC6)c5=O)cc4)CC3)nc21` [Compound 12] yielded a pIC50 of 5.99.
`Cn1cncc(-c2ccc(C3(NC(=O)c4nnc(Cc5c(F)cccc5F)[nH]4)CC3)cc2)c1=O` [Compound 18] showed a pIC50 of 5.76.
`CC(C)n1cncc(-c2ccc(C3(NC(=O)c4nc5n(n4)[C@H](c4ccccc4)CC5)CC3)cc2)c1=O` [Compound 16] was tested, and the pIC50 was 8.15.
`CC(C)n1ncc2cnc(C(=O)NC3(c4ccc(-c5cncn(C6COC6)c5=O)cc4)CC3)nc21` [Compound 41] gave a pIC50 of 5.71.
`CC(C)n1ncc2cnc(C(=O)NC3(c4ccc(-c5cncn(CC6CC6)c5=O)c(F)c4)CC3)nc21` [Compound 75] was tested, and the pIC50 was 7.39.
Compound `CC(C)n1ncc2cnc(C(=O)NC3(c4ccc(-c5cncn(CC6CC6)c5=O)cc4F)CC3)nc21` [Compound 74] has a pIC50 of 7.52.
`CC(C)n1cncc(-c2ccc(C3(NC(=O)c4ncc5cnn(-c6ccccn6)c5n4)CC3)cc2)c1=O` [Compound 63] showed a pIC50 of 5.03.
For `C[C@@H](n1cncc(-c2ccc(C3(NC(=O)c4ncc5cnn(CC6CC6)c5n4)CC3)c(F)c2)c1=O)C(F)(F)F` [Compound 76], the pIC50 was 7.49.
In the case of `C[C@H](n1cncc(-c2ccc(C3(NC(=O)c4ncc5cnn(CC6CC6)c5n4)CC3)c(F)c2)c1=O)C(F)(F)F` [Compound 71], the pIC50 was 7.70.
Compound `CC(C)n1cncc(-c2ccc(C3(NC(=O)c4ncn(Cc5ccccc5)n4)CC3)cc2)c1=O` [Compound 17] has a pIC50 of 7.60.
With `CC(C)n1ncc2cnc(C(=O)NC3(c4ccc(-c5cncn([C@H](C)C(F)(F)F)c5=O)cc4)CC3)nc21` [Compound 39] the pIC50 was 7.23.
With `CC(C)n1ncc2cnc(C(=O)NC3(c4ccc(-c5cncn(CC6CC6)c5=O)c(F)c4F)CC3)nc21` [Compound 95] the pIC50 was 6.84.
`CC(C)n1ncc2cnc(C(=O)NC3(c4ccc(-c5cncn([C@H](C)C6CC6)c5=O)cc4)CC3)nc21` [Compound 84, (R)—N-(1-(4-(1-(1-cyclopropylethyl)-6-oxo-1,6-dihydropyrimidin-5-yl)phenyl)cyclopropyl)-1-i-propyl-1H-pyrazolo[3,4-d]pyrimidine-6-carboxamide] was tested, and the pIC50 was 8.15.
`CC(C)n1cncc(-c2ccc(C3(NC(=O)c4ncc5cnn(CC6CC6)c5n4)CC3)cc2)c1=O` [Compound 61] was tested, and the pIC50 was 7.32.
`CC(C)n1ncc2cnc(C(=O)NC3(c4ccc(-c5cncn([C@@H]6C[C@@H]6F)c5=O)cc4)CC3)nc21` [Compound 69] showed a pIC50 of 7.01.
For `CC(C)n1ncc2cnc(C(=O)NC3(c4ccc(-c5cncn(C)c5=O)cc4)CC3)cc21` [Compound 28, 1-isopropyl-N-(1-(4-(1-methyl-6-oxo-1,6-dihydropyrimidin-5-yl)phenyl)cyclopropyl)-1H-pyrazolo[4,3-c]pyridine-6-carboxamide], the pIC50 was 5.24.
Work on `CC(C)n1ncc2cnc(C(=O)NC3(c4ccc(-c5cncn(C)c5=O)cc4F)CC3)nc21` [Compound 26] yielded a pIC50 of 6.07.
`Cn1cncc(-c2ccc(C3(NC(=O)c4ncc(Cc5ccccc5)o4)CC3)cc2)c1=O` [Compound 10] showed a pIC50 of 6.17.
`CC(C)n1ncc2cnc(C(=O)NC3(c4ccc(-c5cncn(C6CCC6)c5=O)cc4)CC3)nc21` [Compound 42] was tested, and the pIC50 was 6.92.
For `CC(C)n1cncc(-c2ccc(C3(NC(=O)c4ncc5cnn(C(C)C)c5n4)CC3)c(F)c2)c1=O` [Compound 34], the pIC50 was 7.11.
For `CC(C)n1ncc2cnc(C(=O)NC3(c4ccc(-c5cncn(C6CCOC6)c5=O)cc4)CC3)nc21` (stereo in doubt) [Compound 81, (S)-1-i-propyl-N-(1-(4-(6-oxo-1-(tetrahydrofuran-3-yl)-1,6-dihydropyrimidin-5-yl)phenyl)cyclopropyl)-1H-pyrazolo[3,4-d]pyrimidine-6-carboxamide], the pIC50 was 6.59.
`CC[C@H](C)n1cncc(-c2ccc(C3(NC(=O)c4ncc5cnn(C(C)C)c5n4)CC3)cc2)c1=O` [Compound 43] was tested, and the pIC50 was 7.80.
For `C[C@@H](n1cncc(-c2ccc(C3(NC(=O)c4ncc5cnn(CC6CC6)c5n4)CC3)cc2)c1=O)C(F)(F)F` [Compound 70], the pIC50 was 7.92.
